Values belong to the compound of their own block, whether it stands above or below them.
Key:
Type in all cases: physicochemical
[1] = Solubility in recrystallization solvents; conditions: solvents marked with an asterisk, such as toluene or water
[2] = Compression and grinding study; conditions: for Stability to compression / Stability to grinding: polymorphic form followed by IR
Procedure: These spectra were recorded using a Spectra-Tech Plan II microscope coupled to a P-E 1760 FTIR spectrometer (64-256 scans, ratio mode, MCT detector, 4 cm^−1 resolution, dry air purge). Spectra of samples without sample preparation were obtained by mounting crystals on a diamond window. Crushed crystals were prepared using a Spectra-Tech micro-Sample Plan (a compression cell) fitted with diamond windows. A stereo microscope was used to observe the behavior of the crystals during compression. After compression, the diamond windows were separated and a spectrum was recorded of the material adhering to one of the windows.

[3] = Heats of solution in methanol and acetone; conditions: for Heat of solution, Acetone / Heat of solution, Methanol: endothermic; for Heat of solution, Acetone: solvent acetone; for Heat of solution, Methanol: solvent methanol
Procedure: Heats of solution were determined using acetone and methanol as suitable solvents. Different polymorphic forms give rise to different heats of solution. […] The value of HT, the heat of transition, is equal to the difference in crystal lattice energy of the two forms and is the same in both solvents. This is predicted since individual enthalpies are solvent dependent but difference are not. […] Heats of solution for Form IV are in progress.

[4] = Thermal analysis (thermomicroscopy, annealing); conditions: for Polymorphic form after annealing (by IR): 10° C./min from ambient to ca. 250° C., held ½-1 hour, slow cooling to room temperature
Procedure: Differential Scanning Calorimetry (DSC) could not differentiate the three forms of Cipamfylline. […] However, when the heating rate was reduced sufficiently, the melting endotherm appeared as a fused melt, i.e. two components melting. This behavior was common to both Forms I and II.
The onset of sublimation was different for each form and continued over a wide temperature range (130-290° C. on a non-calibrated instrument). This is not evident on the DSC thermograms. Melting occurred over a range (310-323° C. on a non-calibrated instrument) for all three forms. The possibility of two components melting consecutively could not be distinguished. The sublimate was collected for all three forms and analyzed by IR and NMR.
The annealing procedure consisted of heating at 10° C./min from ambient to ca. 250° C. and holding at this point for ½-1 hour, then allowing the sample to cool slowly to room temperature.
This could explain the similarity in melting points of the three forms.

[5] = Crystalline stability; conditions: Forms I, II and IV compared
Excerpt: Form I is characterized by a minimum of five years crystalline stability.

- Solubility in solvent [1]: particularly low solubility
SMILES: Nc1nc2c([nH]1)c(=O)n(CC1CC1)c(=O)n2CC1CC1 [Cipamfylline, 1,3-di-cyclopropylmethyl-8-amino xanthine]

- Polymorphic conversion under pressure ([2]; under pressure, under some circumstances): convert to Form I
SMILES: Nc1nc2c([nH]1)c(=O)n(CC1CC1)c(=O)n2CC1CC1 [Form IV, 1,3-di-cyclopropylmethyl-8-amino xanthine]

- Relative stability suggested by heats of solution ([3]; Form I vs Form II, both solvents): the more stable form
- Heat of solution, Acetone ([3]; listed as 2): 5.59 kcal/mol
- Heat of solution, Methanol ([3]; listed as 2): 6.47 kcal/mol
- Polymorphic form after annealing (by IR) [4]: converted to Form I
- Stability to compression [2]: stable to compression
- Stability to grinding [2]: not to severe grinding
SMILES: Nc1nc2c([nH]1)c(=O)n(CC1CC1)c(=O)n2CC1CC1 [Form II, 1,3-di-cyclopropylmethyl-8-amino xanthine]

- Heat of solution, Acetone ([3]; listed as 1): 3.93 kcal/mol
- Heat of solution, Methanol ([3]; listed as 1): 4.81 kcal/mol
- Relative stability indicated by thermal experiments [4]: the most stable form
- Polymorphic form after annealing (by IR) [4]: converted to Form I
- Stability to compression [2]: stable
- Stability to grinding [2]: stable
- Relative stability among the three polymorphs [5]: greatest stability
SMILES: Nc1nc2c([nH]1)c(=O)n(CC1CC1)c(=O)n2CC1CC1 [Form I, 1,3-di-cyclopropylmethyl-8-amino xanthine]

Reference: US6583283B1, “Polymorphic forms of cipamfylline” (SmithKline Beecham Corporation, priority 1997, dated 2003)
